For data set [1], the system named is midshaft femoral fractures. The data set is described as follows: Midshaft femur fracture healing in otherwise healthy mice (micro-CT, bend to failure). In kind it is in vivo. The conditions noted are these: for bone deposition in CT images: three weeks after initiation of treatment, FIG. 35. The source says: In some instances, elevated accumulation of SEQ ID NO: 4 at the fracture site improves fracture healing (e.g., FIGS. 26-30). In some instances, femur fracture healing times following administration of a starting dose calculated by allometric scaling of the human dose prescribed for abaloparatide (SEQ ID NO: 2) treatment of osteoporosis are compared.
Bone morphometric analyses confirmed a 1.5-fold increase in the ratio of mineralized volume (bone volume; BV) to total bone volume (total volume; TV) in the SEQ ID NO: 4-treated mice.
In some instances, such as, to establish whether the observed increase in bone deposition translates into an improvement in mechanical properties, the force required to bend the healed femurs until they fractured again was measured.
In some instances, the force to fracture in the SEQ ID NO: 4-treated mice exceeded that required to fracture the contralateral healthy femurs in the same mice or similar, unmodified femurs in saline-treated mice.
The length of the targeting oligopeptide was increased to determine if it increased the drug's affinity for broken bone sufficiently that retention of the anabolic payload at the fracture site would be prolonged and less frequent dosing may be required. Mice were doses once every three days, rather than daily. […] The results are shown in FIG. 34, which is a graph of treatment (saline, SEQ ID NO: 3 (0.1 nmol/mg (0.1×), 1 nmol/mg (1×), and 10 nmol/mg (10×), and SEQ ID NO: 4 (0.1 nmol/mg (0.1×), 1 nmol/mg (1×), and 10 nmol/mg (10×)) vs. max load (N) of mice with midshaft femoral factures.

In data set [2] the test system is type I diabetic femur fracture. The data set is described as follows: Fracture repair model, type I diabetes, compounds dosed in conjunction with insulin. As to conditions: with insulin 2 IU/day; for strength (maximum force, work to fracture, modulus): significance relative to insulin-treated group, FIG. 22A-C. In kind it is in vivo, mice. How it is done:
(§1) Targeted conjugates of SEQ ID NO: 5, abaloparatide (SEQ ID NO: 2), SEQ ID NO: 6, and SEQ ID NO: 9 (a conjugate with 10 aspartic acid residues) were synthesized using Fmoc solid-phase peptide synthesis. From SEQ ID NO: 5, amino acids 1-34 were used, and abaloparatide (SEQ ID NO: 2) is a stabilized version of amino acids 1-36 of SEQ ID NO: 1. Diabetes was induced in 40 8-week-old male CD-1 mice via seven subcutaneous injections of streptozotocin (STZ) until blood sugar readings were above 250 mg/dL. The mice were left in this confirmed diabetic state for 2 months to allow the diabetes to take effect on the bones. Then, aseptic surgical techniques were used to place a 23-gauge needle as an intramedullary nail in the femur of the anesthetized mice for internal fixation before fracture was induced with a drop-weight fracture device from RISystem and confirmed by x-ray. The mice received buprenorphine for three days post-fracture. They were dosed subcutaneously with a positive control of insulin, a negative control of vehicle, SEQ ID NO: 5, or abaloparatide (SEQ ID NO: 2) each day for 4 weeks. Fracture healing was assessed qualitatively using micro-CT (Scanco Medical Ag). Fractured femurs were tested for strength in a 4-point-bend-to-failure using an ElectroForce TestBench (TA Instruments, New Castle, DE). Maximum load, stiffness, displacement post-yield, and work-to-fracture data were generated. Statistical analysis was performed using a one-way analysis of variance (ANOVA) with significance reported with p values less than 0.05 (*) and 0.01 (**).
However, since […] patients will not stop taking their insulin to take a compound provided herein, the experiment was repeated with compounds dosed in conjunction with insulin (FIGS. 20-22). […]
For FIGS. 22A-22C, insulin was dosed at 2 IU/day in all groups, except for saline. […] All significance levels were calculated relative to the insulin-treated group, not the saline control group. […]

Data set [3] relates to type I diabetic femur fracture. In kind it is in vivo. As to conditions: for callus mineralization (BV) and bone density (BV/TV): four weeks of treatment, micro-CT, FIG. 13 and 14; for strength of the fractures (max load, work to fracture): four weeks, 4-point bend, FIG. 15 and 16. The method, then: as §1
Four compounds were tested. […] Abaloparatide (SEQ ID NO: 2) is a stabilized version of parathyroid-related protein hormone. Dasatinib is an […] with off-target effects on both osteoblasts and osteoclasts that improve overall bone density. Dasatinib has also proven to be a senolytic. ITGA is a fibronectin mimetic that promotes intramembranous bone fracture healing. […] Therefore, it was hypothesized that the glucose regulating properties of full-length SEQ ID NO: 5 may be beneficial in healing type I diabetic fractures as a dual-action compound that may improve healing via two mechanisms. The compounds were compared against insulin as a positive control and saline as a negative control.
BV represents the bone volume of the 100 thickest micro-CT slices of the fracture callus and is a measure of how much bone has mineralized at the site of fracture repair. BV/TV represents the BV divided by TV of the 100 thickest micro-CT slides of the fracture callus and is a measure of how dense the bone is at the site of fracture repair. Insulin was dosed as 2 IU/day. Doses of 0.1×, 50×, and 10×, are […], and 10 nmol, respectively, of the conjugate delivered daily by subcutaneous injection. SEQ ID NO: 6 was dosed at 10 μmol/kg every other day.
Insulin was dosed at 2 IU/day. Doses of 0.1×, 50×, and 10×, are 0.1 nmol, 50 nmol, and […], of the conjugate delivered daily by subcutaneous injection. SEQ ID NO: 6 was dosed at 10 μmol/kg every other day.

Details of data set [4]: species or system mice. As to conditions: mouse, in vivo, sc. The source says: (§2) SEQ ID NO: 4 was subcutaneously injected into fracture-bearing mice. […] The results are shown in FIG. 30, which is a graph of hours vs. percent injected dose in blood (cpm/g) of mice with midshaft femoral factures. […] The results are shown in FIG. 31, which is a graph of hours vs. percent injected dose in bone (cpm/g) of mice with midshaft femoral factures.

In data set [5] the test system is fracture site (fractured femur). Further details: species or system mice. The conditions noted are these: mouse, in vivo; for cumulative residence time (AUC) at the fracture site / half-life at the fracture site: sc.
From the text: as §2

The subject of another data set is midshaft femur fracture. The experiment in a line: Pain/function outcomes, locomotor open-field testing after midshaft femur fracture. In kind it is in vivo, mice. The conditions noted are these: for pain/function outcomes, well-being in the open field: 5 weeks post-fracture, measured once a week. How it is done:
Pain/function outcomes in mice were accessed by turning to behavioral testing. Allodynia was evaluated using Von Frey probes, whereas gain was evaluated using DigiGait, functionality was evaluated using running wheels, and anxiety coupled with functionality was evaluated using locomotor open-field testing. Open-field locomotor testing afforded the most consistent measurements.
Mice were habituated to the behavior room for 30-60 minutes before testing locomotor activity. Animals were habituated once for 10 minutes to the locomotor boxes prior to the start of the experiment. They were then placed individually in a locomotor box with infrared light tracking beams for 10 minutes before being removed and placed back in their home cage. The mice were tracked via EthoVision using 3-point directionality testing. Mice were measured for two weeks prior to the experiment. They then underwent the midshaft femur fracture model and were assigned to one of three treatment groups: 1) abaloparatide DE20 twice a week; 2) phosphate buffered saline twice a week; or 3) ibuprofen (0.6 g/L) in their water. The mice were treated for 5 weeks post-fracture and measured once a week.
For FIGS. 26-28, day 0 represents the baseline data pre-fracture. Saline and SEQ ID NO: 4 (1 nmol) were injected twice/week. Ibuprofen was administered constantly in the mice's water at a concentration of 0.6 g/L.

Where [6] appears, read: dosed once every three days, FIG. 34.

One may read the half-life as how long it takes for the measured level to halve. Low readings indicate rapid decline, high ones slow decline.

Non-standard residues stand in square brackets, D forms with d. No end group written: not given here. Aib = CC(C)(N)C(=O)O

Take “SEQ ID NO: 3: SEQ ID NO: 15 (AVSEHQLLHDKGKSIQDLRRRELLEKLLxKLHTAEIRATSEVSPNS) followed by eeeeeeeeee, e = D-glutamic acid (AVSEHQLLHDKGKSIQDLRRRELLEKLL[Aib]KLHTAEIRATSEVSPNS[dE][dE][dE][dE][dE][dE][dE][dE][dE][dE])”: the “max load compared to saline (significance)” value in data set [1] (setting [6]) is on record as “lacked significance when dosed every three days”. Moreover, in data set [1] (mouse, in vivo), the “healing in healthy femur fractures” value is given as “repeatedly accelerated healing in healthy femur fractures” and the “relative effectiveness at improving bone healing” value is listed as “better than abaloparatide”.

“SEQ ID NO: 8: cyclic peptide 102, a conjugate with 10 glutamic acid residues (HEEEEEEEEEERRETAWA; also: cyclic, ring not given here)”: the “mineralization of the callus (bone volume)” value in data set [2] (four weeks, FIG. 20A) is recorded as “improved the mineralization of the callus better than insulin”. Further, in data set [2], the “strength (maximum force, work to fracture, modulus)” value is “significantly improved the strength compared to the insulin control”.

Regarding “SEQ ID NO: 7: ITGA (fibronectin mimetic cyclic peptide 101) conjugated with 10 glutamic acid residues (HEEEEEEEEEERRETAWA; also: cyclic, ring not given here)”, in data set [1] (mouse, in vivo), the “healing in healthy femur fractures” value is reported as “repeatedly accelerated healing in healthy femur fractures”.

Take “abaloparatide [SEQ ID NO: 2, reference compound]”: the “callus mineralization (BV) and bone density (BV/TV)” value (“callus mineralization” for short) in data set [3] was “impacting density the most”. In addition, in data set [2], the “strength (maximum force, work to fracture, modulus)” value is “significantly improved the strength compared to the insulin control”. Also, in data set [4], the circulation half-life amounted to 4.2 h and the “cumulative systemic exposure (AUC)” value is 24.4 h. Moreover, in data set [5], the “cumulative residence time (AUC) at the fracture site” value is 8 h and the “half-life at the fracture site” value was found to be 8.8 h. Besides, in data set [1], the “bone deposition in CT images” value was “concentrated on the periphery of the fracture, with minimal density bridging the opposing calluses”.

As for `CC(C)Cc1ccc(C(C)C(=O)O)cc1` (stereo not drawn) [ibuprofen, reference compound], in the data set with midshaft femur fracture, the “pain/function outcomes, well-being in the open field” value is “did not improve their pain/function outcomes”.

With “SEQ ID NO: 6: a targeted conjugate of dasatinib (e.g., D10-ester-dasatinib) ({ester‑dasatinib}-DDDDDDDDDD)”, in data set [3], the “callus mineralization” value is listed as “without improving the callus mineralization”; the “strength of the fractures (max load, work to fracture)” value is recorded as “improved strength”. Besides, in data set [3] (mouse, in vivo), the “change in body mass” value is listed as “lost weight” and the “toxicity (in words)” value is “exhibited some toxicity at higher doses”. The “healing in healthy femur fractures” value in data set [1] (mouse, in vivo) is recorded as “repeatedly accelerated healing in healthy femur fractures”.

Take “AVSEHQLLHDKGKSIQDLRRRELLEKLLxKLHTAEIRATSEVSPNSeeeeeeeeeeeeeeeeeeee [SEQ ID NO: 4]”: the “distance traveled in 10 minutes” value in the data set with midshaft femur fracture (1 nmol twice/week, FIG. 26) is given as “began to run farther”. Further, in the data set on midshaft femur fracture (1 nmol twice/week, FIG. 27), the “time spent moving in 10 minutes” value is “began to run for longer periods of time”. The “mean velocity in 10 minutes” value in the data set with midshaft femur fracture (1 nmol twice/week, FIG. 28) is “began to run faster”. In the data set with midshaft femur fracture, the “pain/function outcomes, well-being in the open field” value was “more functionality and better well-being”. Also, in data set [4], the circulation half-life worked out at 3.7 h and the “cumulative systemic exposure (AUC)” value is 20 h. In data set [5], the “cumulative residence time (AUC) at the fracture site relative to abaloparatide” value stood at 11 fold; the “residence time in the contralateral femur, fold lower than in the fractured femur” value is given as 8 fold; the “cumulative residence time (AUC) at the fracture site” value worked out at 96 h; the “half-life at the fracture site” value came out at 67 h. For the same molecule, in data set [1] (FIG. 32), the “maximum load relative to free abaloparatide-treated femurs” value came out at 2.5 fold. Also, in data set [1] (FIG. 33), the “work to fracture relative to abaloparatide-treated femurs” value is listed as 3.5 fold. Also, in data set [1] (setting [6]), the “max load compared to saline (significance)” value is on record as “significantly higher”. For the same molecule, the “maximum load before breakage, abalode 20 versus abalode 10, greater strength” value in data set [1] (dosed once every three days, trend, FIG. 34) is recorded as 20-30%. Also, in data set [1] (mouse, in vivo), the “relative effectiveness at improving bone healing” value is “more effective (e.g., at improving bone healing) than SEQ ID NO: 3”; the “time at which bones return to their previous unbroken strength” value was “between two and three weeks post-fracture”. Further, the “bone deposition in CT images” value in data set [1] is “distributed (e.g., more) evenly across the fractured area”. Besides, in data set [1] (three weeks of therapy), the “morphometric basis of the increase in bone density” value is “primarily due to a reduction in trabecular spacing, rather than an increase in trabecular thickness”. The “increase in the ratio of bone volume to total volume (BV/TV)” value in data set [1] (three weeks of therapy, compared with abaloparatide-treated mice) was found to be 1.5 fold. Further, the “strength of repaired femurs above original unbroken femurs” value in data set [1] (versus contralateral healthy femurs) turned out to be 30%.

Regarding insulin [reference compound], in data set [3], the “callus mineralization” value is recorded as “improvement in mineralization”; the “strength of the fractures (max load, work to fracture)” value is “not able to restore the quality of the bone”. Further, the blood sugar levels entry in data set [3] (four-week treatment period, FIG. 18) was “the only compound to improve blood sugar levels”.

The values above are taken from patent US20230399374A1, “Compounds, Compositions and Methods of Use to Treat Bone Fractures” (PURDUE RESEARCH FOUNDATION, priority 2020, published 2023).
